This is an account of results in patent publication US11802107B2, “Compounds and methods of use” (Signum Biosciences, Inc., priority 2017, dated 2023).

The structures appear in SMILES notation. Bounds are passed on as bounds.

For one assay, the system named is Balb/C mice. Description: Oxazolone-induced delayed-type hypersensitivity (DTH) in vivo model. Summed up: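 Male Balb/C mice (8-10 weeks) sensitized with 3% oxazolone on dorsal skin, ear-challenged on day 7 with 0.5%; test materials at 3% w/v topically to both ear surfaces 30 min post-challenge in 60:40 H2O:EtOH. Ear edema and IL-4 ELISA of 6-mm biopsies at 24 h; % inhibition, n=5-15/group.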

The test system of a further assay is IL-22. Briefly: Anti-CD3/CD28+IL-4-induced IL-22 on PBMCs. The assay is classed as cell-based. Conditions: Homo sapiens, PBMC, anti-CD3/CD28 beads + 50 ng/mL IL-4, 48 hours, ELISA, read-out: TCR/IL-4-PBMCs IL-22 IC50. The procedure:
(§1) Cryopreserved human Peripheral Blood Mononuclear cells (PBMCs) from healthy adult donors were obtained from Zen Bio, Inc (Cat No. SER-PBMC-F). Cells were cultured in 96-well plates with lymphocyte media (Cat No. LYMPH-1) and were pre-treated with test materials (≤100 μM) for 2 hours and later co-treated with test materials and anti-CD3/CD28 beads (Thermo-Fisher; Cat No. 11131D) and 50 ng/mL recombinant human IL-4 (R&D Systems® #204-IL) for 48 hours at 37° C. and 5% CO2. After incubation, cell media supernatants were harvested and used to measure cytokine levels (IL-22, IL-31) using ELISA kits (R&D Systems® #DY782, #DY2824). Results were represented as percent of inhibition relative to untreated and anti-CD3/CD28+IL-4 only treated cells. IC50 values were determined by non-linear regression analysis using the four-parameter logistic equation.
In general terms: In an ELISA, binding on a coated surface is turned into a signal by an enzyme label.

The subject of the next assay is IL-31. Description: Anti-CD3/CD28+IL-4-induced IL-31 on PBMCs. Conditions: Homo sapiens, PBMC, anti-CD3/CD28 beads + 50 ng/mL IL-4, 48 hours, ELISA, read-out: TCR/IL-4-PBMCs IL-31 IC50. The format is cell-based. The protocol:
as §1

The subject of a further assay is DEFB103 (hBD3). Description: NHEK antimicrobial peptide gene expression, hBD3. Conditions: 10 μM, 24 hours, qPCR, normalized to GAPDH. The format is cell-based, human. The protocol: (§2) Normal human epidermal keratinocytes (NHEKs) from neonatal donors were obtained from Thermo-Fisher (Cat No. C-001-5C). Cells were cultured in 6-well plates for 24 hours before treatments with EpiLife media (Cat No. MEPI500CA) supplemented with keratinocytes growth supplement (Cat No. 50015). On Day 2, media was removed and incubated with test materials (10 μM) for 24 hours at 37° C. and 5% CO2. On Day 3, total RNA was extracted from cells using the RNAqueous® kit (Ambion®; Cat No. 1912) and cDNA was obtained using the High Capacity RNA-to-cDNA kit (Applied Biosystems®; Cat No. 4387406). Quantitative PCR (qPCR) was performed using the TaqMan® Fast Advanced Master Mix (Applied Biosystems®; Cat No. 4444556) and specific TaqMan®-probes human gene primers DEFB4B (hBD2), DEFB103 (hBD3), HCAP18 and GAPDH to calculate the relative gene fold expression change per treatment. Gene expression analysis was performed using the comparative Ct method (also known as the 2-[delta][delta]Ct) approach by comparing the Ct values of the treated samples with the untreated samples and normalized to GAPDH gene expression as endogenous housekeeping gene. Results were represented as fold-expression/untreated cells.
Background: In qPCR the cycle at which signal appears reflects the starting amount.

The test system of a further assay is HCAP18. Description: NHEK antimicrobial peptide gene expression, hCAP18. The assay is classed as cell-based, human. The note with it: 10 μM, 24 hours, qPCR, normalized to GAPDH. The protocol: as §2
A further assay has as its system TNF-α. Description: P. acnes-induced TNF-α protein on human PBMCs (ELISA). The assay is classed as cell-based. The note with it: PBMCs + live P. acnes 1:1, test material 30 PM, 24 hours. The protocol:
Cryopreserved human Peripheral Blood Mononuclear cells (PBMCs) from healthy adult donors were obtained from Zen Bio, Inc (Cat No. SER-PBMC-F). Cells were cultured in 12-well plates with lymphocyte media (Cat No. LYMPH-1) and incubated with test materials ([…]) and live P. acnes (ATCC® 6919TM) at 1:1 PBMC: P. acnes bacteria ratio for 24 hours at 37° C. and 5% CO2. After incubation, cell media supernatants were harvested and used to measure pro-inflammatory cytokine levels (IL-8, TNF-α, IL-1b, IL-17) using ELISA kits (BD Biosciences® #557966, #555212, #555244; R&D Systems® #DY317). Total RNA was extracted from cells using the RNAqueous® kit (Ambion®; Cat No. 1912) and cDNA was obtained using the High Capacity RNA-to-cDNA kit (Applied Biosystems®; Cat No. 4387406). Quantitative PCR (qPCR) was performed using the TaqMan® Fast Advanced Master Mix (Applied Biosystems®; Cat No. 4444556) and specific TaqMan®-probes human gene primers CXCL8 (IL-8), IL1B (IL-1b), TNF (TNF-α), IL17A (IL-17A) and GAPDH to calculate the relative gene fold expression change per treatment. Gene expression analysis was performed using the comparative Ct method (also known as the 2-[delta][delta]Ct) approach by comparing the Ct values of P. acnes-only treated cells with the untreated samples and normalized to GAPDH gene expression as endogenous housekeeping gene.

Setting [1] is: Mus musculus, topical to ears @ 3% w/v, 24 hours, read-out: Edema % inhibition.
Setting [2] is: topical to ears @ 3% w/v, 24 hours, ear biopsy ELISA.

Regarding `C/C(=C\CSC[C@H](NC(=O)COCC(=O)O)C(=O)O)CCCC(C)CCCC(C)CCCC(C)C` (some centres unmarked) [Compound T], in the assay on Balb/C mice (setting [1]), the inhibition in vivo at 3 % strength was found to be 31%. The “Edema (% inhibition)” value worked out at 20 ± 4% in the assay with Balb/C mice (dose 0.2 Mg/ear, average±S.E.); 31 ± 6% in the assay with Balb/C mice (dose 0.6 Mg/ear, average±S.E.); 53 ± 8% in the assay with Balb/C mice (dose 1 Mg/ear, average±S.E.). Further, the “MPO (% inhibition)” value in the assay on Balb/C mice (dose 0.2 Mg/ear, average±S.E.) worked out at 30 ± 14%; with Balb/C mice (dose 0.6 Mg/ear, average±S.E.), 41 ± 18%; with Balb/C mice (dose 1 Mg/ear, average±S.E.) it was 71 ± 3%. Besides, the IL-4 (% inhibition) in the assay with Balb/C mice (setting [2]) worked out at 53%. The IC50 in the assay on IL-22 is > 25000 nM; in the assay on IL-31, 1 nM.

Consider `C/C(=C\CSC[C@H](NC(=O)N1CCC[C@H]1C(=O)O)C(=O)O)CCCC(C)CCCC(C)CCCC(C)C` (some centres unmarked) [Compound E], for which, in the assay with DEFB103 (hBD3), the hBD3 gene expression was 2.9 Fold-expression/untreated cells. The hCAP18 gene expression in the assay with HCAP18 is given as 0.7 Fold-expression/untreated cells. The TNFa-Protein % inhibition with TNF-α is 0%. Further, the inhibition in vivo at 3 % strength in the assay on Balb/C mice (setting [1]) was determined as 51%. Further, the “Edema (% inhibition)” value is given as 22% with Balb/C mice (dose 0.6 Mg/ear, average±S.E.) and 51 ± 9% with Balb/C mice (dose 1 Mg/ear, average±S.E.). Also, the figures for the IC50 in the assay on IL-22 and in the assay on IL-31 were > 25000 nM and 1 nM, respectively.

For `C/C(=C\CSCC(NC(=O)NCC(=O)O)C(=O)O)CCCC(C)CCCC(C)CCCC(C)C` (centres unmarked) [A], in the assay with Balb/C mice (setting [1]), the inhibition in vivo at 3 % strength was found to be 44%.

As to `N#Cc1ccc(Oc2ccc3c(c2)COB3O)cc1` [AN2728, reference compound], in the assay on Balb/C mice (Mus musculus, topical @2%, 24 hours, read-out: Edema % inhibition), the inhibition in vivo at 2 % was 0%. In the assay with Balb/C mice (dose 0.4 Mg/ear, average±S.E.), the “Edema (% inhibition)” value is 17 ± 5%, the “IL-4 (% inhibition)” value was 76 ± 9% and the “MPO (% inhibition)” value was 36 ± 12%. The IL-4 (% inhibition) in the assay with Balb/C mice (topical @2%, 24 hours) is recorded as 76 (@2%). The IC50 with IL-22 was 2000 nM. The IC50 in the assay with IL-31 came out at 0.008 nM.

For the compound `C/C(=C\CSCC(NC(=O)N(CC(=O)O)CC(=O)O)C(=O)O)CCCC(C)CCCC(C)CCCC(C)C` (centres unmarked) [Compound G], the hBD3 gene expression with DEFB103 (hBD3) was 4.7 Fold-expression/untreated cells. Also, in the assay on HCAP18, the hCAP18 gene expression is listed as 0.6 Fold-expression/untreated cells. Moreover, the TNFa-Protein % inhibition with TNF-α amounted to 0%. Further, in the assay on Balb/C mice (setting [1]), the inhibition in vivo at 3 % strength was determined as 41%. Also, in the assay with Balb/C mice (dose 0.6 Mg/ear, average±S.E.), the “Edema (% inhibition)” value is listed as 41%. In addition, in the assay on IL-22, the IC50 was > 25000 nM.

For `C/C(=C\CSC[C@H](NC(=O)N(C)CC(=O)O)C(=O)O)CCCC(C)CCCC(C)CCCC(C)C` (stereo partly drawn) [Compound C, (2R)-2-{[(carboxymethyl)(methyl)carbamoyl]amino}-3-{[(2E)-3,7,11,15-tetramethylhexadec-2-en-1-yl]sulfanyl}propanoic acid], the hBD3 gene expression with DEFB103 (hBD3) is 9.5 Fold-expression/untreated cells. Moreover, the hCAP18 gene expression with HCAP18 is on record as 0.5 Fold-expression/untreated cells. Also, the TNFa-Protein % inhibition in the assay with TNF-α came out at 0%. Further, the inhibition in vivo at 3 % strength with Balb/C mice (setting [1]) was found to be 53%. The “Edema (% inhibition)” value was 23 ± 4% in the assay on Balb/C mice (dose 0.2 Mg/ear, average±S.E.); 53 ± 5% in the assay with Balb/C mice (dose 0.6 Mg/ear, average±S.E.); 72 ± 4% in the assay on Balb/C mice (dose 1 Mg/ear, average±S.E.). Besides, the “IL-4 (% inhibition)” value in the assay with Balb/C mice (dose 0.2 Mg/ear, average±S.E.) stood at 33 ± 9%; in the assay with Balb/C mice (dose 0.6 Mg/ear, average±S.E.), 41 ± 10%; in the assay with Balb/C mice (dose 1 Mg/ear, average±S.E.), 62 ± 11%; with Balb/C mice (setting [2]), 41%. In addition, the “MPO (% inhibition)” value is 22 ± 9% in the assay on Balb/C mice (dose 0.2 Mg/ear, average±S.E.); 67 ± 23% in the assay on Balb/C mice (dose 0.6 Mg/ear, average±S.E.); 81 ± 5% in the assay on Balb/C mice (dose 1 Mg/ear, average±S.E.). Also, in the assay on IL-22, the IC50 is > 25000 nM.
